Experimental data as given in patent publication US10912763B2 (priority 2010, dated 2021).

Assay: Pharmacological activity of the decomposition product

## Fc1ccc2[nH]c3c(c2c1)CCOC31CC=C(c2ccccc2)CC1 (stereo not shown) [6′-fluoro-4-phenyl-4′,9′-dihydro-3′H-spiro[cyclohex-3-ene-1,1′-pyrano[3,4-b]indole]]
  Pharmacological activity: pharmacologically inactive
